Experimental findings from patent publication US20150141439A1, “PHARMACEUTICAL COMPOSITION FOR THE PREVENTION OR TREATMENT OF BRAIN TUMOR OR TEMODAL RESISTANT GLIOBLASTOMA MULTIFORM COMPRISING AZATHIOPRINE AS AN ACTIVE INGREDIENT” (KOREA RESEARCH INSTITUTE OF CHEMICAL TECHNOLOGY, priority 2012, published 2015) are described below.

Series [1] relates to CCD986SK Human fibroblast. In words: Secondary cytotoxicity test, CCD986SK. The format is cell-based. Particulars: CCD-986Sk. As for the experimental part:
(§1) Particularly, the cell growth inhibition effect was measured by WST-1 cell proliferation assay [http://www.roche-applied-science.com/PROD_INF/MANUALS/CELL_MAN/apoptosis—087—088.pdf]. The compound of formula 1 was loaded in a 384-well cell culture plate. Three types of glioblastoma multiform cell lines [proneural subtype (559T), mesenchymal subtype (592T), and classical subtype (626T)], normal human astrocytes (NHA), a lung cancer cell line (A549), and a glioblastoma multiform cell line (U87MG) were distributed in the plate at the density of 4.5×10^3 cells/well, and the medium was filled up to make 50 μl per well. At this time, the concentration of the solvent DMSO for the compound of formula 1 was no more than 0.2%. After culturing the cells for 72 hours, 5 mg/ml of WST-1 reagent was added by 5 μl per well, followed by reaction for 3˜4 hours. Then OD450 was measured to investigate the effect of the compound of formula 1 on cell proliferation.
(§2) To investigate the cell growth inhibition effect of the compound of formula 1 of the present invention (azathioprine) in many different cell lines, secondary cytotoxicity test was performed with the cell lines listed in Table 5 by the same manner as described in Example 1.

Series [2] deals with GBM #1 glioblastoma multiform patient originated cells. In words: Neurosphere formation inhibition, GBM #1. It counts as cell-based, human. Set-up: key to inhibition of neurosphere formation: S: strong effect; I: intermediate effect; R: rare effect. On the procedure: (§3) Particularly, to investigate neurosphere formation, glioblastoma multiform cells were cultured for a certain time and the cells were distributed again in culture vessels, followed by additional culture. Then, the number of newly generated neurospheres was measured. First, the glioblastoma multiform patient originated cells were sub-cultured, which were distributed in a 96-well plate (20, 50, and 200 cells in 50 μl of culture medium/well). 2, 6, and 20 μM of the compound of formula 1 (azathioprine) and the compound of Comparative Example 1 (Temodal) were treated thereto by 50 μl per well to make the final concentrations of 1, 3, and 10 μM. Then, the compound of formula 1 (azathioprine) and the compound of Comparative Example 1 (Temodal) were added to 50 μl of cell culture medium with the same concentrations as the above once a week, which were then cultured for 7˜23 days. When neurosphere was formed at least 50 μm in the control group not treated with the compound, the number of neurospheres in each well was counted to compare the neurosphere formation before and after the treatment of the compound of formula 1 (azathioprine) and the compound of Comparative Example 1 (Temodal).
The glioblastoma multiform cells used in this experiment were classified into 4 types, which are type A, type B, type C, and type D, according to the gene expression pattern. Methylation of MGMT (O6-me-G methyltransferase), the DNA repair protein, was confirmed in each cell line. At that time, type A [GBM #1, #2, #3] was proneural subtype, type B [GBM #4, #5, #6, #7] was classical subtype, type C [GBM #8] was mesenchymal subtype, and type D [GBM #9, #10] was non-classified glioblastoma multiform.

Series [3] relates to GBM #7 glioblastoma multiform patient originated cells. Put plainly: Neurosphere formation inhibition, GBM #7. Set-up: key: S: strong effect; I: intermediate effect; R: rare effect. Particulars: GBM #7, type B (classical), Azathioprine 1 μM, duration 23 day. The format is cell-based, human. On the procedure: as §3
The glioblastoma multiform cells used in this experiment were classified into 4 types, which are type A, type B, type C, and type D, according to the gene expression pattern. […]

Series [4] deals with proneural subtype (559T) glioblastoma multiform cells. The note with it: concentrations starting from 100 μM, culture for 7 days. On the procedure: (§4) Thymidine incorporation assay was performed to investigate the cell growth inhibition effect of the compound of the present invention. Three subtypes of glioblastoma multiform cells [proneural subtype (559T), mesenchymal subtype (592T), classical subtype (626T)] and normal human astrocytes (NHA) were N cultured in a 96-well plate at the density of 1×10^4 cells/well, to which 2 μCi/well of 3H-thymidine was added. Azathioprine was added thereto at different concentrations starting from 100 μM, followed by culture for 7 days. 200 μl/well of scintillation fluid (biofluor) was added thereto and count per minute (cpm) was calculated.

In series [5] the test system is classical subtype (626T) glioblastoma multiform cells. Particulars: concentrations starting from 100 μM, culture for 7 days. On the procedure: as §4
Series [6] deals with mesenchymal subtype (592T) glioblastoma multiform cells. The note with it: concentrations starting from 100 μM, culture for 7 days. On the procedure: as §4
For series [7], the system named is NCI-H23 Human lung adenocarcinoma. Put plainly: Secondary cytotoxicity test, NCI-H23. It counts as cell-based. On the procedure: as §1, §2
Series [8] deals with normal human astrocytes (NHA). In words: WST-1 cell proliferation assay, NHA. The format is cell-based. On the procedure: as §1
In general terms: Formazan colour is commonly taken as a measure of viable cells.

For series [9], the system named is GBM #9 glioblastoma multiform patient originated cells. In words: Neurosphere formation inhibition, GBM #9. It counts as cell-based, human. The note with it: GBM #9, type D (non-classified), Azathioprine 1 μM, duration 21 day. Further details: key: S: strong effect; I: intermediate effect; R: rare effect. As for the experimental part:
as §3, with “2, 6, and 20 μM of the compound of formula 1 (azathioprine) and the compound of Comparative Example 1 (Temodal) were treated thereto by 50 μl per well to make the final concentrations of 1, 3, and 10 μM.” left out
The glioblastoma multiform cells used in this experiment were classified into 4 types, which are type A, type B, type C, and type D, according to the gene expression pattern. Methylation of MGMT (O6-me-G methyltransferase), the DNA repair protein, was confirmed in each cell line. […]

The test system of series [10] is MKN45 Human stomach adenocarcinoma. In words: Secondary cytotoxicity test, MKN45. The format is cell-based. The note with it: MKN-45. On the procedure:
as §1, §2

The subject of another series is GBM (559T) cells. Particulars: GBM (559T) cell lysate, azathioprine 10 μM, 24 hours later, compared with before the treatment.

Consider `Cn1cnc([N+](=O)[O-])c1Sc1ncnc2nc[nH]c12` [Azathioprine, 6-(1-methyl-4-nitro-1H-imidazol-5-ylthio)-7H-purine], for which the IC50 is above 10 µM in series [1], 4.9 µM in series [7] and 1.2 µM in series [10]. Moreover, the “inhibition of neurosphere formation” value is on record as “R” in series [2] (GBM #1, type A (proneural), Azathioprine 1 μM, duration 7 day); “S” in series [3]; “S” in [9]. Moreover, the neurosphere formation result in [2] (GBM#1, azathioprine raised to 10 μM) is “significantly inhibited”. Further, the “cell growth inhibition effect (3H-thymidine incorporation)” value in series [4], in series [5] and in series [6] was “significant cell growth inhibition effect” throughout. In addition, the inhibition at 0.032 µM in [8] (Homo sapiens, Astrocyte, 0.032 μM, 72 hours, read-out: Cell Growth Inhibition (% Inhibition)) amounted to 1.9%. Moreover, the inhibition at 0.1 µM in [8] (Homo sapiens, Astrocyte, 0.1 μM, 72 hours, read-out: Cell Growth Inhibition (% Inhibition)) was determined as 5.9%. Also, in series [8] (Homo sapiens, Astrocyte, 0.32 μM, 72 hours, read-out: Cell Growth Inhibition (% Inhibition)), the inhibition at 0.32 µM came out at 11%. Besides, the inhibition at 1 µM in series [8] (Homo sapiens, Astrocyte, 1.0 μM, 72 hours, read-out: Cell Growth Inhibition (% Inhibition)) was found to be 8.3%. The inhibition at 3.2 µM in [8] (Homo sapiens, Astrocyte, 3.2 μM, 72 hours, read-out: Cell Growth Inhibition (% Inhibition)) is 10.5%. For the same molecule, in [8] (Homo sapiens, Astrocyte, 10 μM, 72 hours, read-out: Cell Growth Inhibition (% Inhibition)), the inhibition at 10 µM is -2.4%. Also, in [8] (Homo sapiens, Astrocyte, 72 hours), the GI50 is above 10 µM. Further, the “toxicity in normal astrocytes” value in series [8] (WST-1, up to 10 μM) is “did not cause toxicity”. The “concentrations of azathioprine metabolites (TGMP, MeTIMP, MeTGMP, TIMP) in cell lysate” value in the series on GBM (559T) cells was “significantly raised”.

The term IC50 denotes the concentration at which inhibition is half-maximal. As usually defined, the inhibition is the change of the read-out against control, counted positive when it falls. As a reminder, the GI50 is the concentration giving 50% growth inhibition.
